Entries after “also recorded” stand apart in the source; their conditions may differ. Read-outs that look alike come from different tables or passages of the source.
Assays:
CLK1 = target: T1, CLK1 (Homo sapiens, UniProt P49759); assay: Kinase panel study; format: biochemical
T1 construct: purchased Thermo Fisher Scientific
Experimental: (§1) The Kinase panel study was entirely provided by Thermo Fisher Scientific using the two lead compounds MW01 and MW05 as well as their derivatives (MW01-E06, MW01-E10, MW01-E14, MW01-E18, MW05-E2, MW05-E3, MW05-E9 and MW05-E10. The experiment was performed using the ZLyte or Adapta protocol according to manufacturer standard operating procedures.
(§2) Based on their similar effects in our screen and molecular analysis, MW01 and MW05 were used in comparative target deconvolution studies seeking common targets despite their distinct structures. To eliminate previously identified kinases regulating NF-κB activity, such as IKK, as possible targets of MW01 and MW05, an in vitro kinase inhibition assay was performed. […] We next investigated if any of the shared kinase targets of MW01 and MW05 play a role in genotoxic stress-induced NF-κB activity and established several criteria to narrow down pathway-relevant targets. Considering the similar NF-κB inhibition phenotypes of both compounds, we hypothesized first that the target should be shared by both lead compounds. Second, based on the CaCo2 recovery values and experimental treatment concentration of 10 µM), the putative target kinase should have a low IC50 of, at most, 2000 nM for both lead compounds in the in vitro kinase panel (Fig. 2A). Based on these criteria alone, we arrived at a relatively short list of potential targets for further analysis, leaving only PIK3CG, PIK3C2G, and CLK2 (Fig. 2B). IC50 values for PIK3C2G by both lead compounds agreed best with these criteria, but RNA expression analysis indicates high tissue specificity as well as lack of expression of this kinase in our U2-OS model cell line, which we then eliminated from further analysis (Uhlén et al., 2015). […] Table 6: Percentage of inhibition of the indicated kinases by MW01 or MW05 at either 10 µM or 1 µM. n.d. = not determined. […]

CLK4 = target: T2, CLK4 (Homo sapiens, UniProt Q9HAZ1); assay: Kinase panel study; format: biochemical
T2 construct: purchased Thermo Fisher Scientific
T2 sequence (Q9HAZ1 whole entry): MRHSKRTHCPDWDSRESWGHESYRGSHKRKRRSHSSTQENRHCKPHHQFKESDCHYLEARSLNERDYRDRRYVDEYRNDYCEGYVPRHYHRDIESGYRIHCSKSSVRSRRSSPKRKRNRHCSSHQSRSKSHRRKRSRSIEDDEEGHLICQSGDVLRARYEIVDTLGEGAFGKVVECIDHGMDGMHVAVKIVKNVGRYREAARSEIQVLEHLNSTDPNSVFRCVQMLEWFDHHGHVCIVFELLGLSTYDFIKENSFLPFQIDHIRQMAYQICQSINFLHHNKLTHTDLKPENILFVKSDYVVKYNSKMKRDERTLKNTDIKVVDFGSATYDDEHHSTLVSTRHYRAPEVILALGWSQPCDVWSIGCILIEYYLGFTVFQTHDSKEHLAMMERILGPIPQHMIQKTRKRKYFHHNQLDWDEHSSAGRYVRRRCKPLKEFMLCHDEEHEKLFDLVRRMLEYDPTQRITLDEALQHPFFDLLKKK
Experimental: as §1, §2
(§3) To validate the structural backbones of MW01 and MW05 and leverage additional structures in discerning on- and off-target activity, we screened more than 30 structural derivatives for similar NF-κB pathway inhibition compared to our lead compounds following irradiation or TNF stimulation (Table 1 and 2). Several structural derivatives of each lead compound were identified which reduced p-p65 and NFKBIA expression in an irradiation-specific manner. (Fig 3A, B, C, Fig. 8). […] As expected for structurally similar derivatives, kinase inhibition profiles of active derivatives were similar to the respective lead compounds, validating the common structural backbones of each as kinase inhibitors. However, inhibition of several kinases was lost some derivatives of MW01 and MW05, including PI3K isoforms, adding further evidence that the NF-κB inhibition by our compounds is not mediated by inhibition of these kinases. […] Considering the phenotypic similarity between two structurally distinct lead compounds, the agreement of the derivatives with our kinase IC50 criteria, and significant results following siRNA knockdown of CLK2 and CLK4, we proceeded to further characterize our lead compounds.

CLK2 = target: T3, CLK2 (Homo sapiens, UniProt P49760); assay: Kinase panel study; format: biochemical; conditions: for inhibition at 1 µM: 1000nM; for IC50: in vitro kinase panel
T3 construct: purchased Thermo Fisher Scientific
T3 sequence (P49760 whole entry): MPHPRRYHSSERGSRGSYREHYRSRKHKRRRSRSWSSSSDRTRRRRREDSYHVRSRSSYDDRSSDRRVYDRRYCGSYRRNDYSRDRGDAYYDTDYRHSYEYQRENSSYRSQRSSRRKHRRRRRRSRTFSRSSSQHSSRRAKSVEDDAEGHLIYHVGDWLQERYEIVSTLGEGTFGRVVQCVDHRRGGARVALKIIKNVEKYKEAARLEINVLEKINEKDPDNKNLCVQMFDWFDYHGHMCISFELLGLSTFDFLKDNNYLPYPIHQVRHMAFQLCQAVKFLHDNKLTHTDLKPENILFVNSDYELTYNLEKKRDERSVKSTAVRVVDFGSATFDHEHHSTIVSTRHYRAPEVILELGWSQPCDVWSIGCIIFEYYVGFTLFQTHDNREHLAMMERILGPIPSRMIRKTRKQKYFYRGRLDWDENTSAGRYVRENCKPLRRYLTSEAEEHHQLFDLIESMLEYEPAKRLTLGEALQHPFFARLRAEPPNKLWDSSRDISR
Experimental: as §1, §2, §3

[1] = system: NF-κB subunit p65 phosphorylation (S536); assay: Western blot of p65 phosphorylation (S536) after DNA damage (irradiation or etoposide) in U2-OS cells; format: cell-based; conditions: for phosphorylation of p65 at serine 536 after DNA damage: 1-hour pre-treatment, irradiation (IR, 20 Gy), 90 min; for activity in cell-based NF-κB activation assays: 10 µM, p65 phosphorylation and NFKBIA expression after irradiation
Experimental: Fig.1: Identification of inhibitors specific for DNA damage-induced NF-κB activity. (A) Flowchart representing the high-throughput chemical library screening. A screen/counter-screen strategy was used by stimulating NF-κB in U2-OS cells with etoposide (50 µM for 90 min) and hits were counter-screened with TNFα (10 ng/ml for 20 min). Cells were pre-treated with compounds (10 µM) for 1 hour before stimulation, fixed, and percent p65 nuclear translocation measured by fluorescence microscopy. IC50 values were used for final selection. (B) Comparison of mean p65 nuclear translocation following either etoposide or TNFa stimulation after treatment with each counter-screened hit compound. Values were normalized to etoposide or TNFα positive controls. Specific inhibitors (red) of DNA damage-induced NF-κB signaling were defined by setting cut-off criteria (black line). […] (C) IC50 determination for MW01 (left) and MW05 (right) of p65 nuclear translocation, following either etoposide or TNFα treatment. […] IC50 noted with a dotted line. (D) Structures of compounds selected as leads for further analysis, MW01 (5-Hydroxy-10,11-dimethoxy-9H-benzo[c]indolo[3,2,1-ij][1,5]naphthyridin-9-one) and MW05 (3-Amino-7-methoxypyrazolo[3,4-b]quinolin-1-yl)-[3-(dimethylamino)phenyl]methanone). (E) Western blot analysis (top) and quantification (bottom) of NF-κB subunit p65 phosphorylation (S536) following 1-hour pre-treatment with DMSO, MW01 (10 µM), or MW05 (10 µM), in unstimulated, after 90 min irradiation (IR, 20 Gy), or after 20 min TNFα (10 ng/mL) conditions in U2- OS cells. B-actin was used as loading control after. The p-p65 signal was first normalized to β-actin loading control per sample, then each value to DMSO-treated unstimulated to evaluate relative activation of NF-κB. Ns: not significant; ***: p<0.001.
NF-κB was stimulated by DNA damage through either 20 Gy irradiation (IR) and analyzed after 90 minutes or by 10 ng/ml TNFα and analyzed after 20 minutes unless otherwise noted.
All compounds were pre-treated for 1-hour prior to NF-κB stimulation unless otherwise noted.
Cells were collected by scraping and lysed in Baeuerle lysis buffer supplemented with Protease (Thermo Fisher Scientific, 78429) and Phosphatase (Thermo Fisher Scientific, 78420) inhibitors after the appropriate treatment and time point. Proteins were quantified by Bradford assay (Bio-Rad, 5000006) and 20-50 µg of extracted proteins were loaded on 4-20% Protein Gel (Bio-Rad, 4568096) and then transferred onto a PVDF membrane (Bio-Rad, 1620177) using Tris-Glycine buffer with 20% of methanol. Blocking was performed for 1h with 5% not-fat dry milk in PBS 1X. Immunodetection was obtained using primary and secondary antibodies reported in Key Resources Table. The membranes were analyzed by ECL (Thermo Fisher Scientific, 34580) and detected by ChemiDoc XRS+ (Bio-Rad) using ImageLab software (Bio-Rad).

[2] = 10000nM, read-out: Percentage of inhibition
[3] = first CLK2 line of the table, read-out: Percentage of inhibition
[4] = second CLK2 line of the table, read-out: Percentage of inhibition
[5] = 10000nM, first CLK2 line of the table, read-out: Percentage of inhibition
[6] = 10000nM, second CLK2 line of the table, read-out: Percentage of inhibition
[7] = CLK1, compound at 10µM, read-out: % of Inhibition
[8] = CLK4, compound at 10µM, read-out: % of Inhibition
[9] = CLK2, compound at 10µM, read-out: % of Inhibition

T1 sequence (P49759 whole entry): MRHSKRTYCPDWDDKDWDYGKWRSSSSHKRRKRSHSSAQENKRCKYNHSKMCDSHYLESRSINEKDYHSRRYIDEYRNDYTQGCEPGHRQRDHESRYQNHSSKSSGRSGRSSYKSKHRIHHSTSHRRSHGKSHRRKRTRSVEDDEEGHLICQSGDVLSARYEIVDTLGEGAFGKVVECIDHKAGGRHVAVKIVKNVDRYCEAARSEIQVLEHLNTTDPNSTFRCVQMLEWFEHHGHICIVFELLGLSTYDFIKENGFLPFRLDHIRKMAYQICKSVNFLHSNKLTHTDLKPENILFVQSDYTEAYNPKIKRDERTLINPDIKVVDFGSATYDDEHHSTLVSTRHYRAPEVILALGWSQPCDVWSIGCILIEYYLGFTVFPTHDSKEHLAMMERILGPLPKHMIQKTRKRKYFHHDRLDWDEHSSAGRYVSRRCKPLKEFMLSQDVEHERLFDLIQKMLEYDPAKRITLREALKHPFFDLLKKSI

Structure (SMILES) | inhibition at 10 µM (CLK1; [2]) [%] | inhibition at 10 µM (CLK4; [2]) [%] | inhibition at 1 µM (CLK2; [3]) [%] | inhibition at 1 µM (CLK2; [4]) [%] | inhibition at 10 µM (CLK2; [5]) [%] | inhibition at 10 µM (CLK2; [6]) [%] | IC50 (CLK2) [nM] | phosphorylation of p65 at serine 536 after DNA damage [1] | inhibition at 10 µM (CLK1; [7]) [%] | inhibition at 10 µM (CLK4; [8]) [%] | inhibition at 10 µM (CLK2; [9]) [%] | activity in cell-based NF-κB activation assays [1] | CLK2 inhibition (CLK2; in vitro kinase assay)
COc1ccc2c(c1OC)c(=O)n1c3ccc(O)cc3c3ccnc2c31 [MW01, 5-Hydroxy-10,11-dimethoxy-9H-benzo[c]indolo[3,2,1-ij][1,5]naphthyridin-9-one] | 88 | 91 | 78 | 78 | 91 | 91 | 360 | significantly reduced | – | – | – | – | –
COc1ccc2c(c1)c1ccnc3c4nc(OC)ccc4c(=O)n2c13 [MW01-E6, 5,15-dimethoxy-1,11,14-triazapentacyclo[10.7.1,0^2,7.0^8,^20.0^13,^18]icosa-2(7),3,5,8(20),9,11,13(18),14,16-nonaen-19-one] | – | – | – | – | – | – | – | – | 10 | 58 | 18 | inactive | –
O=c1c2cc(O)ccc2c2nccc3c4cc(O)ccc4n1c32 [MW01-E10, 5,16-dihydroxy-1,11-diazapentacyclo[10.7.1.0^2,^7.0^8,^20.0^13,^18]icosa-2(7),3,5,8(20),9,11,13(18),14,16-nonaen-19-one] | – | – | – | – | – | – | – | – | 69 | 99 | 70 | – | –
COc1ccc2c(c1)c1ccnc3c4ccnc(OC)c4c(=O)n2c13 [MW01-E14, 5,17-dimethoxy-1,11,16-triazapentacyclo[10.7.1.0^2,^7.0^8,^20.0^13,^18]icosa-2(7),3,5,8(20),9,11,13(18),14,16-nonaen-19-one] | – | – | – | – | – | – | – | – | 6 | 67 | 20 | inactive | –
O=c1c2cnccc2c2nccc3c4cc(O)ccc4n1c32 [MW01-E18, 5-hydroxy-1,11,16-triazapentacyclo[10.7.1.0^2,^7.0^8,^20.0^13,^18]icosa-2(7),3,5,8(20),9,11,13(18),14,16-nonaen-19-one] | – | – | – | – | – | – | – | – | 61 | 98 | 70 | – | –
COc1ccc2cc3c(N)nn(C(=O)c4cccc(N(C)C)c4)c3nc2c1 [MW05, (3-Amino-7-methoxypyrazolo[3,4-b]quinolin-1-yl)-[3-(dimethylamino)phenyl]methanone] | 73 | 94 | 40 | 40 | 86 | 72 | 1440 | significantly reduced | – | – | – | – | –
COc1ccc2nc3c(cc2c1)c(N)nn3C(=O)c1cccc(N(C)C)c1 [MW05-E2, 1-[3-(dimethylamino)benzoyl]-6-methoxy-1H-pyrazolo[3,4-b]quinolin-3-amine] | – | – | – | – | – | – | – | – | 16 | 75 | 74 | inactive; also recorded: lacking activity | inhibited CLK2

From EP4467141A1, “PYRAZOLO-QUINOLINES AS SELECTIVE INHIBITORS OF GENOTOXIC STRESS-INDUCED IKK/NF- KB PATHWAYS FOR CANCER THERAPY” (Max-Delbrück-Centrum für Molekulare Medizin in der …, priority 2023, dated 2024)
